What follows are compounds tested against T1, HCV NS3-4A serine protease (full-length NS3-4A protein, genotype 1a, strain HCV-1) (Hepatitis C virus genotype 1a, UniProt P26664) (assay: HCV NS3-4A protease assay). Conditions: Protease IC50.
T1 construct: using the full-length NS3-4A protein (genotype 1a, strain HCV-1)
Format: biochemical
Procedure: The inhibitory activity of certain compounds of Table A against HCV NS3-4A serine protease is determined in a homogenous assay using the full-length NS3-4A protein (genotype 1a, strain HCV-1) and a commercially available internally-quenched fluorogenic peptide substrate as described by Taliani, M., et al. 1996 Anal. Biochem. 240:60-67, which is incorporated by reference in its entirety.

T1 sequence (P26664 1658-1711): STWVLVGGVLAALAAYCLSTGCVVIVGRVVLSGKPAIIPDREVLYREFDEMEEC
T1 sequence (P26664 1027-1657): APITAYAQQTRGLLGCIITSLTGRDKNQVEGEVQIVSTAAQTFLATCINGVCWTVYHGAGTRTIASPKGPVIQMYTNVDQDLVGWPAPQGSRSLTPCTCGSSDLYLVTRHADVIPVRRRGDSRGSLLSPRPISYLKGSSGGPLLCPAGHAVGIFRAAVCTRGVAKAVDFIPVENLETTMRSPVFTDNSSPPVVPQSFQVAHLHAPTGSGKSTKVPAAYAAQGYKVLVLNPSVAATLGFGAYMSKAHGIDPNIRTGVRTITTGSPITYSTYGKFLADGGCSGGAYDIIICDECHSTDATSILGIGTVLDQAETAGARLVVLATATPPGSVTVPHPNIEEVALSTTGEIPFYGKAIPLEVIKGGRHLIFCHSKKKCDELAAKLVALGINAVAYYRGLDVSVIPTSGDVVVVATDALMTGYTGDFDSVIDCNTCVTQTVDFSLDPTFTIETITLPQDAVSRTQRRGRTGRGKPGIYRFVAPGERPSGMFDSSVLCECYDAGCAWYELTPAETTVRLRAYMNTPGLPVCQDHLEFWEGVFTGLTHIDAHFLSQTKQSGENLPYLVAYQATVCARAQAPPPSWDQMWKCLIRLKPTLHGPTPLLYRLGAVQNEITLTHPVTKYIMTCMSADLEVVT

With `C=C[C@H]1C[C@@]1(NC(=O)[C@@H]1C[C@@]2(CN1C(=O)[C@@H](NC(=O)[C@@H](NC(=O)c1nccn1C)C1CCCCC1)C(C)(C)C)C(C)(C)C21CCC1)C(=O)NS(=O)(=O)C1CC1` [Compound 103, (5R,8S)-7-{(2S)-2-[(cyclohexyl{[(1-methyl-1H-imidazol-2-yl)carbonyl]amino}acetyl)amino]-3,3-dimethylbutanoyl}-N-{(1R,2S)-1-[(cyclopropylsulfonyl)carba-moyl]-2-vinylcyclopropyl}-10,10-dimethyl-7-azadispiro[3.0.4.1]decane-8-carboxamide] as the compound, how does the IC50 read?
The IC50 was 1.5 nM.

`C=C[C@H]1C[C@@]1(NC(=O)[C@@H]1C[C@@]2(CN1C(=O)[C@@H](NC(=O)[C@@H](NC(=O)C(C)(C)N1CCCCC1)C1CCCCC1)C(C)(C)C)C(C)(C)C21CCC1)C(=O)NS(=O)(=O)C1CC1` [Compound 104, (5R,8S)-7-[(2S)-2-({cyclohexyl[(2-methyl-2-piperidin-1-ylpropanoyl)amino]acetyl}amino)-3,3-dimethylbutanoyl]-N-{(1R,2S)-1-[(cyclopropylsulfonyl)carba-moyl]-2-vinylcyclopropyl}-10,10-dimethyl-7-azadispiro[3.0.4.1]decane-8-carboxamide] was tested. Which IC50 did it give?
The IC50 was 0.7 nM.

Which IC50 does the source give for `C=C[C@H]1C[C@@]1(NC(=O)[C@@H]1C[C@@]2(CN1C(=O)[C@@H](NC(=O)[C@@H](NC(=O)c1ncc[nH]1)C1CCCCC1)C(C)(C)C)C(C)(C)C21CCC1)C(=O)NS(=O)(=O)C1CC1` [Compound 105, (5R,8S)-7-[(2S)-2-({cyclohexyl[(1H-imidazol-2-ylcarbonyl)amino]acetyl}amino)-3,3-dimethylbutanoyl]-N-{(1R,2S)-1-[(cyclopropylsulfonyl)carba-moyl]-2-vinylcyclopropyl}-10,10-dimethyl-7-azadispiro[3.0.4.1]decane-8-carboxamide] here?
The IC50 was 0.9 nM.

`C=C[C@H]1C[C@@]1(NC(=O)[C@@H]1C[C@@]2(CN1C(=O)[C@@H](NC(=O)[C@@H](NC(=O)c1ccno1)C1CCCCC1)C(C)(C)C)C(C)(C)C21CCC1)C(=O)NS(=O)(=O)C1CC1` [Compound 107, (5R,8S)-7-[(2S)-2-({cyclohexyl[(isoxazol-5-ylcarbonyl)amino]acetyl}amino)-3,3-dimethylbutanoyl]-N-{(1R,2S)-1-[(cyclopropylsulfonyl)carba-moyl]-2-vinylcyclopropyl}-10,10-dimethyl-7-azadispiro[3.0.4.1]decane-8-carboxamide] was tested. Which IC50 did it give?
Its IC50 is 0.6 nM.

For `C=C[C@H]1C[C@@]1(NC(=O)[C@@H]1C[C@@]2(CN1C(=O)[C@@H](NC(=O)[C@@H](NC(=O)[C@@H]1CCCO1)C1CCCCC1)C(C)(C)C)C(C)(C)C21CCC1)C(=O)NS(=O)(=O)C1CC1` [Compound 108, (5R,8S)-7-{(2S)-2-[(cyclohexyl{[(2S)-tetrahydrofuran-2-ylcarbonyl]amino}acetyl)amino]-3,3-dimethylbutanoyl}-N-{(1R,2S)-1-[(cyclopropylsulfonyl)carba-moyl]-2-vinylcyclopropyl}-10,10-dimethyl-7-azadispiro[3.0.4.1]decane-8-carboxamide], which IC50 is on record?
The IC50 was 2.5 nM.

For `C=C[C@H]1C[C@@]1(NC(=O)[C@@H]1C[C@@]2(CN1C(=O)[C@@H](NC(=O)[C@@H](NC(=O)C1CNC(=O)C1)C1CCCCC1)C(C)(C)C)C(C)(C)C21CCC1)C(=O)NS(=O)(=O)C1CC1` (stereo partly drawn) [Compound 109, (5R,8S)-7-{(2S)-2-[(cyclohexyl{[(5-oxopyrrolidin-3-yl)carbonyl]amino}acetyl)amino]-3,3-dimethylbutanoyl}-N-{(1R,2S)-1-[(cyclopropylsulfonyl)carba-moyl]-2-vinylcyclopropyl}-10,10-dimethyl-7-azadispiro[3.0.4.1]decane-8-carboxamide], which IC50 is on record?
The IC50 was 0.6 nM.

`C=C[C@@H]1C[C@]1(NC(=O)[C@@H]1C[C@@]2(CN1C(=O)[C@@H](NC(=O)[C@@H](NC(=O)[C@@H]1CCC(=O)N1)C1CCCCC1)C(C)(C)C)C(C)(C)C21CCC1)C(=O)NS(=O)(=O)C1CC1` [Compound 110, (5R,8S)-7-[(2S)-2-{[(2S)-2-cyclohexyl-2-({[(2S)-5-oxopyrrolidin-2-yl]carbonyl}amino)acetyl]amino}-3,3-dimethylbutanoyl]-N-{(1R,2S)-1-[(cyclopropylsulfonyl)carba-moyl]-2-vinylcyclopropyl}-10,10-dimethyl-7-azadispiro[3.0.4.1]decane-8-carboxamide] was tested. Which IC50 did it give?
The IC50 was 1.5 nM.

For `C=C[C@@H]1C[C@]1(NC(=O)[C@@H]1C[C@@]2(CN1C(=O)[C@@H](NC(=O)[C@@H](NC(=O)[C@H]1CCC(=O)N1)C1CCCCC1)C(C)(C)C)C(C)(C)C21CCC1)C(=O)NS(=O)(=O)C1CC1` [Compound 111, (5R,8S)-7-[(2S)-2-{[(2S)-2-cyclohexyl-2-({[(2R)-5-oxopyrrolidin-2-yl]carbonyl}amino)acetyl]amino}-3,3-dimethylbutanoyl]-N-{(1R,2S)-1-[(cyclopropylsulfonyl)carba-moyl]-2-vinylcyclopropyl}-10,10-dimethyl-7-azadispiro[3.0.4.1]decane-8-carboxamide], which IC50 is on record?
The IC50 was 2 nM.

For `C=C[C@@H]1C[C@]1(NC(=O)[C@@H]1C[C@@]2(CN1C(=O)[C@@H](NC(=O)[C@@H](NC(=O)c1cocn1)C1CCCCC1)C(C)(C)C)C(C)(C)C21CCC1)C(=O)NS(=O)(=O)C1CC1` [Compound 112, (5R,8S)-7-[(2S)-2-({(2S)-2-cyclohexyl-2-[(1,3-oxazol-4-ylcarbonyl)amino]acetyl}amino)-3,3-dimethylbutanoyl]-N-{(1R,2S)-1-[(cyclopropylsulfonyl)carba-moyl]-2-vinylcyclopropyl}-10,10-dimethyl-7-azadispiro[3.0.4.1]decane-8-carboxamide], which IC50 is on record?
The IC50 was 1.5 nM.

`C=C[C@@H]1C[C@]1(NC(=O)[C@@H]1C[C@@]2(CN1C(=O)[C@@H](NC(=O)[C@@H](NC(=O)c1cnco1)C1CCCCC1)C(C)(C)C)C(C)(C)C21CCC1)C(=O)NS(=O)(=O)C1CC1` [Compound 113, (5R,8S)-7-[(2S)-2-({(2S)-2-cyclohexyl-2-[(1,3-oxazol-5-ylcarbonyl)amino]acetyl}amino)-3,3-dimethylbutanoyl]-N-{(1R,2S)-1-[(cyclopropylsulfonyl)carba-moyl]-2-vinylcyclopropyl}-10,10-dimethyl-7-azadispiro[3.0.4.1]decane-8-carboxamide] was tested. Which IC50 did it give?
The IC50 was 2.5 nM.

How did the IC50 turn out when `C=C[C@@H]1C[C@]1(NC(=O)[C@@H]1C[C@@]2(CN1C(=O)[C@@H](NC(=O)[C@@H](NC(=O)c1ccc[nH]1)C1CCCCC1)C(C)(C)C)C(C)(C)C21CCC1)C(=O)NS(=O)(=O)C1CC1` [Compound 114, (5R,8S)-7-[(2S)-2-({(2S)-2-cyclohexyl-2-[(1H-pyrrol-2-ylcarbonyl)amino]acetyl}amino)-3,3-dimethylbutanoyl]-N-{(1R,2S)-1-[(cyclopropylsulfonyl)carba-moyl]-2-vinylcyclopropyl}-10,10-dimethyl-7-azadispiro[3.0.4.1]decane-8-carboxamide] was run?
Its IC50 is 0.7 nM.

For `C=C[C@@H]1C[C@]1(NC(=O)[C@@H]1C[C@@]2(CN1C(=O)[C@@H](NC(=O)[C@@H](NC(=O)c1ccncn1)C1CCCCC1)C(C)(C)C)C(C)(C)C21CCC1)C(=O)NS(=O)(=O)C1CC1` [Compound 115, (5R,8S)-7-[(2S)-2-({(2S)-2-cyclohexyl-2-[(pyrimidin-4-ylcarbonyl)amino]acetyl}amino)-3,3-dimethylbutanoyl]-N-{(1R,2S)-1-[(cyclopropylsulfonyl)carba-moyl]-2-vinylcyclopropyl}-10,10-dimethyl-7-azadispiro[3.0.4.1]decane-8-carboxamide], which IC50 is on record?
The IC50 was 0.6 nM.

Which IC50 does the source give for `C=C[C@@H]1C[C@]1(NC(=O)[C@@H]1C[C@@]2(CN1C(=O)[C@@H](NC(=O)[C@@H](NC(=O)c1cncnc1)C1CCCCC1)C(C)(C)C)C(C)(C)C21CCC1)C(=O)NS(=O)(=O)C1CC1` [Compound 116, (5R,8S)-7-[(2S)-2-({(2S)-2-cyclohexyl-2-[(pyrimidin-5-ylcarbonyl)amino]acetyl}amino)-3,3-dimethylbutanoyl]-N-{(1R,2S)-1-[(cyclopropylsulfonyl)carba-moyl]-2-vinylcyclopropyl}-10,10-dimethyl-7-azadispiro[3.0.4.1]decane-8-carboxamide] here?
The IC50 was 0.6 nM.

How did the IC50 turn out when `C=C[C@@H]1C[C@]1(NC(=O)[C@@H]1C[C@@]2(CN1C(=O)[C@@H](NC(=O)[C@@H](NC(=O)c1ncccn1)C1CCCCC1)C(C)(C)C)C(C)(C)C21CCC1)C(=O)NS(=O)(=O)C1CC1` [Compound 117, (5R,8S)-7-[(2S)-2-({(2S)-2-cyclohexyl-2-[(pyrimidin-2-ylcarbonyl)amino]acetyl}amino)-3,3-dimethylbutanoyl]-N-{(1R,2S)-1-[(cyclopropylsulfonyl)carba-moyl]-2-vinylcyclopropyl}-10,10-dimethyl-7-azadispiro[3.0.4.1]decane-8-carboxamide] was run?
Its IC50 is 8 nM.

`C=C[C@@H]1C[C@]1(NC(=O)[C@@H]1C[C@@]2(CN1C(=O)[C@@H](NC(=O)[C@@H](NC(=O)c1[nH]c(C)c(C)c1C(C)=O)C1CCCCC1)C(C)(C)C)C(C)(C)C21CCC1)C(=O)NS(=O)(=O)C1CC1` [Compound 118, (5R,8S)-7-[(2S)-2-{[(2S)-2-{[(3-acetyl-4,5-dimethyl-1H-pyrrol-2-yl)carbonyl]amino}-2-cyclohexylacetyl]amino}-3,3-dimethylbutanoyl]-N-{(1R,2S)-1-[(cyclopropylsulfonyl)carba-moyl]-2-vinylcyclopropyl}-10,10-dimethyl-7-azadispiro[3.0.4.1]decane-8-carboxamide] was tested. Which IC50 did it give?
The IC50 was 1.4 nM.

`C=C[C@@H]1C[C@]1(NC(=O)[C@@H]1C[C@@]2(CN1C(=O)[C@@H](NC(=O)[C@@H](NC(=O)C(C)(C)N1CCCCC1)C(C)(C)C)C(C)(C)C)C(C)(C)C21CCC1)C(=O)NS(=O)(=O)C1CC1` [Compound 119, (5R,8S)-N-{(1R,2S)-1-[(cyclopropylsulfonyl)carba-moyl]-2-vinylcyclopropyl}-7-[(2S)-2-({(2S)-3,3-dimethyl-2-[(2-methyl-2-piperidin-1-ylpropanoyl)amino]butanoyl}amino)-3,3-dimethylbutanoyl]-10,10-dimethyl-7-azadispiro[3.0.4.1]decane-8-carboxamide] was tested. Which IC50 did it give?
The IC50 was 3.5 nM.

Source: patent publication US20110182850A1, “ORGANIC COMPOUNDS AND THEIR USES” (priority 2009, published 2011)
